In patent publication US10195197B2, “Combination therapy with glutaminase inhibitors” (Calithera Biosciences, Inc., priority 2016, dated 2019):

System: JIMT-1 tumors
Experiment: JIMT-1 xenograft model, antitumor efficacy (in vivo TNBC model)
Settings: single agent paclitaxel, five doses at 10 mg/kg every other day at start of study; initial regression followed by rapid regrowth; P=0.0002
Experimental: In the JIMT-1 xenograft model, the antitumor efficacy was evaluated by treating established tumors (125 mm^3 at the start of dosing) with CB-839 both as a single agent and in combination with paclitaxel, a standard-of-care chemotherapeutic agent for the treatment of TNBC. The regimen for paclitaxel (five doses at 10 mg/kg delivered every other day at the start of study) was chosen to provide suboptimal efficacy to ensure a window to evaluate the potential impact of combination treatment.

## CC(=O)O[C@H]1C(=O)[C@@]2(C)[C@H]([C@H](OC(=O)c3ccccc3)[C@]3(O)C[C@H](OC(=O)[C@H](O)[C@@H](NC(=O)c4ccccc4)c4ccccc4)C(C)=C1C3(C)C)[C@]1(OC(C)=O)CO[C@@H]1C[C@@H]2O [paclitaxel]
  TGI relative to vehicle control at the end of study: 73%
